Converted amounts (≈) assume the structure as drawn.
Experiments:
Test in all cases: In vitro antibacterial evaluation: minimum inhibitory concentration (MIC), broth dilution method
Type in all cases: cell-based
Enterococcus sp. = conditions: 18 hours at 35° C.
In short: (§1)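 An MIC is reported for each organism as the least concentration giving inhibition, using broth dilution over 64-0.06 μg/mL with a 5×10^5 CFU/mL inoculum.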

Escherichia coli = conditions: 18 hours at 35° C.
In short: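 Broth dilution per NCCLS M7-A2 in Muller-Hinton II […], inoculum 5×10^5 CFU/mL, antibiotic tested over 64-0.06 μg/mL. MIC is taken as the lowest concentration that inhibits growth. Panel includes recent clinical isolates resistant to methicillin, penicillin and/or vancomycin.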

Staphylococcus sp. = tested on: Staphylococcus sp.
In short: as §1

Streptococcus sp. = conditions: 18 hours at 35° C.
In short: as §1

[1] = broth dilution, inoculum 5×10^5 CFU/mL

MIC Enterococcus avium (GC 4558) (Enterococcus sp.; Enterococcus avium (GC 4558)): 4 µg/mL (≈ 2.71 µM) | MIC Enterococcus faecalis (ATCC 29212) (Enterococcus sp.; Enterococcus faecalis (ATCC 29212)): 8 µg/mL (≈ 5.43 µM) | MIC Enterococcus faecalis (GC 2242) (Enterococcus sp.; Enterococcus faecalis (GC 2242)): 8 µg/mL (≈ 5.43 µM) | MIC Enterococcus faecalis (GC 2691) (Enterococcus sp.; Enterococcus faecalis (GC 2691)): 8 µg/mL (≈ 5.43 µM) | MIC Enterococcus faecalis (GC 3059) (Enterococcus sp.; Enterococcus faecalis (GC 3059)): 8 µg/mL (≈ 5.43 µM) | MIC Enterococcus faecalis (GC 4552) (Enterococcus sp.; Enterococcus faecalis (GC 4552)): 8 µg/mL (≈ 5.43 µM) | MIC Enterococcus faecalis (GC 4553) (Enterococcus sp.; Enterococcus faecalis (GC 4553)): 8 µg/mL (≈ 5.43 µM) | MIC Enterococcus faecalis (GC 4554) (Enterococcus sp.; Enterococcus faecalis (GC 4554)): 8 µg/mL (≈ 5.43 µM) | MIC Enterococcus faecalis (GC 6189) (Enterococcus sp.; Enterococcus faecalis (GC 6189)): 8 µg/mL (≈ 5.43 µM) | MIC Enterococcus faecium (GC 2243) (Enterococcus sp.; Enterococcus faecium (GC 2243)): 4 µg/mL (≈ 2.71 µM) | MIC Enterococcus faecium (GC 4556) (Enterococcus sp.; Enterococcus faecium (GC 4556)): 8 µg/mL (≈ 5.43 µM) | MIC Enterococcus faecium (GC 4557) (Enterococcus sp.; Enterococcus faecium (GC 4557)): 4 µg/mL (≈ 2.71 µM) | MIC Enterococcus avium (GC 4558) (Enterococcus sp.; [1]): 4 µg/mL (≈ 2.71 µM) | MIC Enterococcus faecalis (ATCC 29212) (Enterococcus sp.; [1]): 8 µg/mL (≈ 5.43 µM) | MIC Enterococcus faecalis (GC 2242) (Enterococcus sp.; [1]): 8 µg/mL (≈ 5.43 µM) | MIC Enterococcus faecalis (GC 2691) (Enterococcus sp.; [1]): 8 µg/mL (≈ 5.43 µM) | MIC Enterococcus faecalis (GC 3059) (Enterococcus sp.; [1]): 8 µg/mL (≈ 5.43 µM) | MIC Enterococcus faecalis (GC 4552) (Enterococcus sp.; [1]): 8 µg/mL (≈ 5.43 µM) | MIC Enterococcus faecalis (GC 4553) (Enterococcus sp.; [1]): 8 µg/mL (≈ 5.43 µM) | MIC Enterococcus faecalis (GC 4554) (Enterococcus sp.; [1]): 8 µg/mL (≈ 5.43 µM) | MIC Enterococcus faecalis (GC 6189) (Enterococcus sp.; [1]): 8 µg/mL (≈ 5.43 µM) | MIC Enterococcus faecium (GC 2243) (Enterococcus sp.; [1]): 4 µg/mL (≈ 2.71 µM) | MIC Enterococcus faecium (GC 4556) (Enterococcus sp.; [1]): 8 µg/mL (≈ 5.43 µM) | MIC Enterococcus faecium (GC 4557) (Enterococcus sp.; [1]): 4 µg/mL (≈ 2.71 µM) | MIC Escherichia coli (ATCC 25922) (Escherichia coli; Escherichia coli (ATCC 25922)): >64 µg/mL | MIC Escherichia coli (GC 4559) (Escherichia coli; Escherichia coli (GC 4559)): >64 µg/mL | MIC Escherichia coli (GC 4560) (Escherichia coli; Escherichia coli (GC 4560)): 16 µg/mL (≈ 10.9 µM) | MIC Staphylococcus aureus (ATCC 29213) (Staphylococcus sp.; strain ATCC 29213): 4 µg/mL (≈ 2.71 µM) | MIC Staphylococcus aureus (GC 1131) (Staphylococcus sp.; strain GC 1131): 4 µg/mL (≈ 2.71 µM) | MIC Staphylococcus aureus (GC 3051) (Staphylococcus sp.; strain GC 3051): 8 µg/mL (≈ 5.43 µM) | MIC Staphylococcus aureus (GC 3053) (Staphylococcus sp.; strain GC 3053): 4 µg/mL (≈ 2.71 µM) | MIC Staphylococcus aureus (GC 4541) (Staphylococcus sp.; strain GC 4541): 4 µg/mL (≈ 2.71 µM) | MIC Staphylococcus aureus (GC 4542) (Staphylococcus sp.; strain GC 4542): 8 µg/mL (≈ 5.43 µM) | MIC Staphylococcus aureus-SMITH (GC 4543) (Staphylococcus sp.; strain GC 4543): 4 µg/mL (≈ 2.71 µM) | MIC Staphylococcus aureus (GC 4544) (Staphylococcus sp.; strain GC 4544): 8 µg/mL (≈ 5.43 µM) | MIC Staphylococcus aureus (GC 4545) (Staphylococcus sp.; strain GC 4545): 4 µg/mL (≈ 2.71 µM) | MIC Coagulase Negative Staphylococcus (GC 4547) (Staphylococcus sp.; strain GC 4547): 4 µg/mL (≈ 2.71 µM) | MIC Coagulase Negative Staphylococcus (GC 4548) (Staphylococcus sp.; strain GC 4548): 4 µg/mL (≈ 2.71 µM) | MIC Coagulase Negative Staphylococcus (GC 4549) (Staphylococcus sp.; strain GC 4549): 2 µg/mL (≈ 1.36 µM) | MIC Coagulase Negative Staphylococcus (GC 4551) (Staphylococcus sp.; strain GC 4551): 4 µg/mL (≈ 2.71 µM) | MIC Coagulase Negative Staphylococcus (GC 6257) (Staphylococcus sp.; strain GC 6257): 4 µg/mL (≈ 2.71 µM) | MIC Streptococcus agalactiae (GC 4564) (Streptococcus sp.; Streptococcus agalactiae (GC 4564)): 2 µg/mL (≈ 1.36 µM) | MIC Streptococcus pneumoniae (ATCC 6301) (Streptococcus sp.; Streptococcus pneumoniae (ATCC 6301)): 0.5 µg/mL (≈ 0.339 µM) | MIC Streptococcus pneumoniae (GC 1894) (Streptococcus sp.; Streptococcus pneumoniae (GC 1894)): <0.06 µg/mL | MIC Streptococcus pneumoniae (GC 4565) (Streptococcus sp.; Streptococcus pneumoniae (GC 4565)): 0.25 µg/mL (≈ 0.17 µM) | MIC Streptococcus pyogenes (GC 4563) (Streptococcus sp.; Streptococcus pyogenes (GC 4563)): 1 µg/mL (≈ 0.679 µM) | MIC Streptococcus agalactiae (GC 4564) (Streptococcus sp.; [1]): 2 µg/mL (≈ 1.36 µM) | MIC Streptococcus pneumoniae (ATCC 6301) (Streptococcus sp.; [1]): 0.5 µg/mL (≈ 0.339 µM) | MIC Streptococcus pneumoniae (GC 1894) (Streptococcus sp.; [1]): <0.06 µg/mL | MIC Streptococcus pneumoniae (GC 4565) (Streptococcus sp.; [1]): 0.25 µg/mL (≈ 0.17 µM) | MIC Streptococcus pyogenes (GC 4563) (Streptococcus sp.; [1]): 1 µg/mL (≈ 0.679 µM)
SMILES: CC(c1ccccc1)C1NC(=O)CNC(=O)C(CO)NC(=O)C(C(O)C2CNC(=N)N2C2OC(CO)C(O)C(O)C2O)NC(=O)C(C(O)C2CNC(=N)N2)NC(=O)C(Cc2ccc(OC3OC(CO)C(OC4OC(CO)C(O)C5OC6(CCCCCCCCCCCC6)OC45)C(O)C3O)cc2)NC1=O (stereo not drawn) [Example 210a, Cyclo[glycyl-β-methylphenylalanyl-O-[4-O-(2,3-O-cyclotridecylidenehexopyranosyl)hexopyranosyl]tyrosyl-3-(2-iminoimidazolidin-4-yl)seryl-3-(3-hexopyranosyl-2-iminoimidazolidin-4-yl)serylseryl]]
MIC Staphylococcus haemolyticus (GC 4546) (Staphylococcus sp.; strain GC 4546): 8 µg/mL (≈ 5.43 µM)

Reference: US8247211B2, “Glycopeptide antibiotics” (American Cyanamid Company, priority 2001, dated 2012)
